Measurements reported in ChEMBL document CHEMBL3621049, “Imidazole derivatives show anticancer potential by inducing apoptosis and cellular senescence” (2014).
The source made the active and inactive calls.

What was measured:
Format in all cases: functional, cell-based
UACC-62 = assay: Growth inhibition of human UACC62 cells at 10 uM by sulforhodamine B assay
BT-549 = assay: Growth inhibition of human BT549 cells at 10 uM by sulforhodamine B assay
Hs-578T = assay: Growth inhibition of human Hs 578T cells at 10 uM by sulforhodamine B assay
MCF7 = assay: Growth inhibition of human MCF7 cells at 10 uM by sulforhodamine B assay
NCI-H322M = assay: Growth inhibition of human NCI-H322M cells at 10 uM by sulforhodamine B assay
IGROV-1 = assay: Growth inhibition of human IGROV1 cells at 10 uM by sulforhodamine B assay
K562 = assay: Growth inhibition of human K562 cells at 10 uM by sulforhodamine B assay
HCC 2998 = assay: Growth inhibition of human HCC2998 cells at 10 uM by sulforhodamine B assay
MDA-MB-231 = assay: Growth inhibition of human MDA-MB-231 cells at 10 uM by sulforhodamine B assay
HOP-92 = assay: Growth inhibition of human HOP92 cells at 10 uM by sulforhodamine B assay
UO-31 = assay: Growth inhibition of human UO31 cells at 10 uM by sulforhodamine B assay
CAKI-1 = assay: Growth inhibition of human Caki1 cells at 10 uM by sulforhodamine B assay
OVCAR-3 = assay: Growth inhibition of human OVCAR3 cells at 10 uM by sulforhodamine B assay
RXF 393 = assay: Growth inhibition of human RXF393 cells at 10 uM by sulforhodamine B assay
SK-OV-3 = assay: Growth inhibition of human SKOV3 cells at 10 uM by sulforhodamine B assay
786-0 = assay: Growth inhibition of human 786-0 cells at 10 uM by sulforhodamine B assay
HT-29 = assay: Growth inhibition of human HT-29 cells at 10 uM by sulforhodamine B assay
SK-MEL-5 = assay: Growth inhibition of human SK-MEL-5 cells at 10 uM by sulforhodamine B assay
SF-295 = assay: Growth inhibition of human SF295 cells at 10 uM by sulforhodamine B assay
DU-145 = assay: Growth inhibition of human DU145 cells at 10 uM by sulforhodamine B assay
KM12 = assay: Growth inhibition of human KM12 cells at 10 uM by sulforhodamine B assay
SW-620 = assay: Growth inhibition of human SW620 cells at 10 uM by sulforhodamine B assay
NCI-H460 = assay: Growth inhibition of human NCI-H460 cells at 10 uM by sulforhodamine B assay
NCI-H522 = assay: Growth inhibition of human NCI-H522 cells at 10 uM by sulforhodamine B assay
OVCAR-8 = assay: Growth inhibition of human OVCAR8 cells at 10 uM by sulforhodamine B assay
HCT-116 = assay: Growth inhibition of human HCT116 cells at 10 uM by sulforhodamine B assay
A498 = assay: Growth inhibition of human A498 cells at 10 uM by sulforhodamine B assay
SF-539 = assay: Growth inhibition of human SF539 cells at 10 uM by sulforhodamine B assay
NCI-H23 = assay: Growth inhibition of human NCI-H23 cells at 10 uM by sulforhodamine B assay
A549 = assay: Growth inhibition of human A549/ATCC cells at 10 uM by sulforhodamine B assay
SNB-19 = assay: Growth inhibition of human SNB19 cells at 10 uM by sulforhodamine B assay
SK-MEL-28 = assay: Growth inhibition of human SK-MEL-28 cells at 10 uM by sulforhodamine B assay
U-251 = assay: Growth inhibition of human U251 cells at 10 uM by sulforhodamine B assay
SN12C = assay: Growth inhibition of human SN12C cells at 10 uM by sulforhodamine B assay
PC-3 = assay: Growth inhibition of human PC3 cells at 10 uM by sulforhodamine B assay
SF-268 = assay: Growth inhibition of human SF268 cells at 10 uM by sulforhodamine B assay
UACC-257 = assay: Growth inhibition of human UACC257 cells at 10 uM by sulforhodamine B assay
MDA-MB-435 = assay: Growth inhibition of human MDA-MB-435 cells at 10 uM by sulforhodamine B assay
ACHN = assay: Growth inhibition of human ACHN cells at 10 uM by sulforhodamine B assay
TK-10 = assay: Growth inhibition of human TK10 cells at 10 uM by sulforhodamine B assay
OVCAR-4 = assay: Growth inhibition of human OVCAR4 cells at 10 uM by sulforhodamine B assay
COLO 205 = assay: Growth inhibition of human COLO205 cells at 10 uM by sulforhodamine B assay
M14 = assay: Growth inhibition of human M14 cells at 10 uM by sulforhodamine B assay
NCI-H226 = assay: Growth inhibition of human NCI-H226 cells at 10 uM by sulforhodamine B assay
MDA-MB-468 = assay: Growth inhibition of human MDA-MB-468 cells at 10 uM by sulforhodamine B assay
NCI/ADR-RES = assay: Growth inhibition of human NCI/ADR-RES cells at 10 uM by sulforhodamine B assay
CCRF-CEM = assay: Growth inhibition of human CCRF-CEM cells at 10 uM by sulforhodamine B assay
HOP-62 = assay: Growth inhibition of human HOP62 cells at 10 uM by sulforhodamine B assay
HL-60(TB) = assay: Growth inhibition of human HL-60(TB) cells at 10 uM by sulforhodamine B assay
MOLT-4 = assay: Growth inhibition of human MOLT4 cells at 10 uM by sulforhodamine B assay
LOX IMVI = assay: Growth inhibition of human LOXIMVI cells at 10 uM by sulforhodamine B assay
SNB-75 = assay: Growth inhibition of human SNB75 cells at 10 uM by sulforhodamine B assay
Malme-3M = assay: Growth inhibition of human MALME-3M cells at 10 uM by sulforhodamine B assay
OVCAR-5 = assay: Growth inhibition of human OVCAR5 cells at 10 uM by sulforhodamine B assay
HCT-15 = assay: Growth inhibition of human HCT15 cells at 10 uM by sulforhodamine B assay
SR = assay: Growth inhibition of human SR cells at 10 uM by sulforhodamine B assay
T47D = assay: Growth inhibition of human T47D cells at 10 uM by sulforhodamine B assay
RPMI-8226 = assay: Growth inhibition of human RPMI8226 cells at 10 uM by sulforhodamine B assay
SK-MEL-2 = assay: Growth inhibition of human SK-MEL-2 cells at 10 uM by sulforhodamine B assay

Measured: growth inhibition (GI)

C#CCn1c(-c2ccc(OC)c(OC3CCCC3)c2)nc(-c2ccccc2)c1-c1ccccc1
active: all assays above

COc1ccc(-c2nc(-c3ccccc3)c(-c3ccccc3)n2C2CC2)cc1OC1CCCCC1
active: all assays above
